# Source: patent US20080138437A1, “Antitumor Agent” (priority 2004, published 2008)
# Structures can show the parent of a compound that is named as a salt. Where two headings read alike, the source gives them in different places.
# Tests used:
# A549 lung cancer cells = experiment: Antitumor test, transplanted tumor in nude mice; type: in vivo, human; settings: control, drug without hydroxyapatite adsorption
# Description: (§1) (Experimental Test 5-1 to 5-5).
# (§2) Female nude mice (7 weeks old, 16 to 22 g) with a BALB/c genetic background were used for the tests. Human cancer cells used for the tests were GCIY stomach cancer cells, HCT-15 colon cancer cells, A549 lung cancer cells, and OVCAR-3 ovarian cancer cells. Human cancer cells were subcutaneously transplanted into nude mice, tumor lumps were formed, and these carcinomas were used for the tests.
# (§3) Aseptically collected tumors were sliced into tumors of 3×3×3 mm, and then subcutaneously transplanted into a new nude mouse. When the tumors reached a volume of 100 to 300 mm^3, the animals were arbitrarily divided into groups of six (Day 0). […] Intravascular administration was the administration route for all.
# (§4) After administration, between Days 24 to 31, the length (L) and width (W) of the tumor lump of the animal were measured twice a week, and the tumor volume (TV) was calculated according to the following formula: TV=(L×W^2)/2. Antitumor effect was determined at Day 14. The relative tumor volume (RTV) was obtained by the following formula: RTV=TV14/TV0, using values of the tumor volume at Day 0 and Day 14 (referred to as TV0 and TV14). Antitumor effect was evaluated as the tumor regression rate at Day 14 (T/C%). Herein, T/C %=100×(average RTV of the treated group)/(RTV of the control group).
# (§5) As a control, each drug was tested without hydroxyapatite adsorption (Comparative Tests 5-10 to 5-14).
# [1] = tested on: GCIY stomach cancer cells; experiment: Antitumor test, transplanted tumor in nude mice; type: in vivo, human; settings: control, drug without hydroxyapatite adsorption
# Description: as §1, §2, §3, §4, §5
# [2] = tested on: HCT-15 colon cancer cells; experiment: Antitumor test, transplanted tumor in nude mice; type: in vivo, human; settings: control, drug without hydroxyapatite adsorption
# Description: as §1, §2, §3, §4, §5
# [3] = tested on: OVCAR-3 ovarian cancer cells; experiment: Antitumor test, transplanted tumor in nude mice; type: in vivo, human; settings: control, drug without hydroxyapatite adsorption
# Description: as §1, §2, §3, §4, §5
# in vivo = settings: male, C57BL/6, mouse
# [4] = tested on: 15 types of human cancer cells; experiment: Cell growth inhibition test, MTT, average GI 50; type: cell-based; settings: average of 15 human cancer cell types, 48 hours exposure
# Protocol: Appropriate amounts of each of the human cancer cells suspended in 5% fetal bovine serum-supplemented medium were plated into a 96-well plate, and allowed to adhere to the wells in a 37° C. CO2 incubator overnight.
# These cancer cells were exposed to each anticancer agent for 48 hours. Cell growth was assayed by MTT. Absorbance of the control well (C) and the test well (T) was measured at 550 nm.
# The absorbance of the test well immediately after adding the drug (TO) was also measured. Using these measured values, GI 50 of each drug was calculated, and the drug concentration at that time was obtained. For comparison, a similar test was performed for each of the anticancer agents (Comparative Tests 4-1 to 4-7).
# C57BL/6 male mouse = settings: for deaths versus administered animals: one-time
# [5] = 400 mg/kg oral, antitumor agent alone, 14 days observation
# [6] = 600 mg/kg oral, antitumor agent alone, 14 days observation
# [7] = 800 mg/kg oral, antitumor agent alone, 14 days observation
# [8] = 1000 mg/kg oral, antitumor agent alone, 14 days observation
# [9] = intravascular, one-time administration, 14 days observation
# 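For LD50 in this document: mice given a single dose and followed for 14 days, with deaths tallied, LD50 derived from the doses given and the resulting death counts.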
# 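For deaths versus administered animals in this document: mice given a single dose and followed for 14 days, with deaths tallied, LD50 derived from the doses given and the resulting death counts.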
molecule,measurement,setting,value
O=P1(N(CCCl)CCCl)NCCCO1 (stereo not shown) [Cyclophosphamide],Regression rate of transplanted cancer (T/C %) at Day 14,A549 lung cancer cells,86%
same,Regression rate of transplanted cancer (T/C %) at Day 14,[1],78%
same,Regression rate of transplanted cancer (T/C %) at Day 14,[2],52%
same,Regression rate of transplanted cancer (T/C %) at Day 14,[3],71%
same,LD50,in vivo,140 mg/kg
N.N.[Cl][Pt][Cl] [Cisplatin],GI50,[4],7.21 µM
same,Regression rate of transplanted cancer (T/C %) at Day 14,A549 lung cancer cells,79%
same,Regression rate of transplanted cancer (T/C %) at Day 14,[1],67%
same,Regression rate of transplanted cancer (T/C %) at Day 14,[2],53%
same,Regression rate of transplanted cancer (T/C %) at Day 14,[3],67%
same,deaths versus administered animals,"C57BL/6 male mouse; 5.0 mg/kg intravascular, 14 days observation",1/8
same,deaths versus administered animals,"C57BL/6 male mouse; 7.5 mg/kg intravascular, 14 days observation",2/7
same,deaths versus administered animals,"C57BL/6 male mouse; 10 mg/kg intravascular, 14 days observation",5/8
same,deaths versus administered animals,"C57BL/6 male mouse; 12.5 mg/kg intravascular, 14 days observation",6/8
same,deaths versus administered animals,"C57BL/6 male mouse; 15 mg/kg intravascular, 14 days observation",5/6
same,deaths versus administered animals,"C57BL/6 male mouse; 17.5 mg/kg intravascular, 14 days observation",6/6
CN(Cc1cnc2nc(N)nc(N)c2n1)c1ccc(C(=O)N[C@@H](CCC(=O)O)C(=O)O)cc1 [Methotrexate],LD50,in vivo; ip,74 mg/kg
S=P(N1CC1)(N1CC1)N1CC1 [Thiotepa],LD50,in vivo,16.1 mg/kg
CCCCCCCCCCCCCCCCCCOP(=O)([O-])OC[C@H]1O[C@@H](n2ccc(N)nc2=O)[C@@H](O)[C@@H]1O.[Na+] [Cytarabine ocfosfate],deaths versus administered animals,"C57BL/6 male mouse; 250 mg/kg oral, antitumor agent alone, 14 days observation",0/5
same,deaths versus administered animals,"C57BL/6 male mouse; 300 mg/kg oral, antitumor agent alone, 14 days observation",1/5
same,deaths versus administered animals,C57BL/6 male mouse; [5],2/5
same,deaths versus administered animals,"C57BL/6 male mouse; 500 mg/kg oral, antitumor agent alone, 14 days observation",2/5
same,deaths versus administered animals,C57BL/6 male mouse; [6],3/5
same,deaths versus administered animals,"C57BL/6 male mouse; 700 mg/kg oral, antitumor agent alone, 14 days observation",3/5
same,deaths versus administered animals,C57BL/6 male mouse; [7],4/5
same,deaths versus administered animals,C57BL/6 male mouse; [8],5/5
same,LD50,"C57BL/6 male mouse; mouse, in vivo, po",524 mg/kg
CCC1=C[C@@H]2CN(C1)Cc1c([nH]c3ccccc13)[C@@](C(=O)OC)(c1cc3c(cc1OC)N(C)[C@H]1[C@@](O)(C(=O)OC)[C@H](OC(C)=O)[C@]4(CC)C=CCN5CC[C@]31[C@@H]54)C2 [Vinorelbine],LD50,in vivo; ip,29 mg/kg
Bleomycin hydrochloride,deaths versus administered animals,"C57BL/6 male mouse; 200 mg/kg intravascular, 14 days observation",0/5
same,deaths versus administered animals,"C57BL/6 male mouse; 250 mg/kg intravascular, 14 days observation",1/6
same,deaths versus administered animals,"C57BL/6 male mouse; 300 mg/kg intravascular, 14 days observation",3/7
same,deaths versus administered animals,"C57BL/6 male mouse; 350 mg/kg intravascular, 14 days observation",4/6
same,deaths versus administered animals,"C57BL/6 male mouse; 400 mg/kg intravascular, 14 days observation",4/5
same,deaths versus administered animals,"C57BL/6 male mouse; 500 mg/kg intravascular, 14 days observation",5/6
same,deaths versus administered animals,"C57BL/6 male mouse; 600 mg/kg intravascular, 14 days observation",6/6
same,LD50,C57BL/6 male mouse; [9],322.7 mg/kg
CN(C)/N=N/c1[nH]cnc1C(N)=O [Dacarbazine],LD50,in vivo,452 mg/kg
Sc1ncnc2nc[nH]c12 [Mercaptopurine],LD50,in vivo; po,1090 mg/kg
CC(=O)O[C@H]1C(=O)[C@@]2(C)[C@H]([C@H](OC(=O)c3ccccc3)[C@]3(O)C[C@H](OC(=O)[C@H](O)[C@@H](NC(=O)c4ccccc4)c4ccccc4)C(C)=C1C3(C)C)[C@]1(OC(C)=O)CO[C@@H]1C[C@@H]2O [Paclitaxel],LD50,in vivo,12 mg/kg
O=c1[nH]c(=O)n(C2CCCO2)cc1F (stereo not shown) [Tegafur],LD50,in vivo; ip,750 mg/kg
CN(C)CCOc1ccc(/C(=C(/CCCl)c2ccccc2)c2ccccc2)cc1 [Toremifene citrate],LD50,in vivo; po,360 mg/kg
CC(C)C[C@H](NC(=O)[C@@H](COC(C)(C)C)NC(=O)[C@H](Cc1ccc(O)cc1)NC(=O)[C@H](CO)NC(=O)[C@H](Cc1c[nH]c2ccccc12)NC(=O)[C@H](Cc1cnc[nH]1)NC(=O)[C@@H]1CCC(=O)N1)C(=O)N[C@@H](CCCNC(=N)N)C(=O)N1CCC[C@H]1C(=O)NNC(N)=O [Goserelin acetate],LD50,in vivo; sc,36 mg/kg
N.N.O=C([O-])C1(C(=O)[O-])CCC1.[Pt+2] [Carboplatin],GI50,[4],75.7 µM
same,deaths versus administered animals,"C57BL/6 male mouse; 70 mg/kg intravascular, 14 days observation",0/6
same,deaths versus administered animals,"C57BL/6 male mouse; 80 mg/kg intravascular, 14 days observation",1/7
same,deaths versus administered animals,"C57BL/6 male mouse; 90 mg/kg intravascular, 14 days observation",3/6
same,deaths versus administered animals,"C57BL/6 male mouse; 100 mg/kg intravascular, 14 days observation",5/8
same,deaths versus administered animals,"C57BL/6 male mouse; 110 mg/kg intravascular, 14 days observation",7/8
same,deaths versus administered animals,"C57BL/6 male mouse; 120 mg/kg intravascular, 14 days observation",7/7
same,LD50,C57BL/6 male mouse; [9],93.0 mg/kg
same,LD50,"C57BL/6 male mouse; oral, antitumor agent alone (comparison), one-time administration, 14 days observation",350 mg/kg
O=P1(NCCCl)OCCCN1CCCl (stereo not shown) [Ifosfamide],LD50,in vivo,325 mg/kg
same,LD50,in vivo; po,996 mg/kg
NC(=O)NO [Hydroxycarbamide],LD50,in vivo; po,2350 mg/kg
CC1=C(/C=C/C(C)=C/C=C/C(C)=C/C(=O)O)C(C)(C)CCC1 [Tretinoin],LD50,in vivo; po,549 mg/kg
COC(COC(N)=O)C1=C(N2CC2)C(=O)C(C)=C(N2CC2)C1=O (stereo not shown) [Carboquone],LD50,in vivo,5.8 mg/kg
C[C@H]1O[C@@H](n2cc(F)c(=O)[nH]c2=O)[C@H](O)[C@@H]1O [Doxifluridine],LD50,in vivo; po,1200 mg/kg
CO[C@@]12[C@H](COC(N)=O)C3=C(C(=O)C(C)=C(N)C3=O)N1C[C@@H]1N[C@@H]12 [Mitomycin C],GI50,[4],1.43 µM
CC(C)COC(=O)OCN1C(=O)CN(CCN2CC(=O)N(COC(=O)OCC(C)C)C(=O)C2)CC1=O [Sobuzoxane],deaths versus administered animals,"C57BL/6 male mouse; 200 mg/kg oral, antitumor agent alone, 14 days observation",0/5
same,deaths versus administered animals,C57BL/6 male mouse; [5],1/5
same,deaths versus administered animals,C57BL/6 male mouse; [6],1/6
same,deaths versus administered animals,C57BL/6 male mouse; [7],2/5
same,deaths versus administered animals,C57BL/6 male mouse; [8],3/5
same,deaths versus administered animals,"C57BL/6 male mouse; 1200 mg/kg oral, antitumor agent alone, 14 days observation",4/5
same,deaths versus administered animals,"C57BL/6 male mouse; 1400 mg/kg oral, antitumor agent alone, 14 days observation",6/6
CS(=O)(=O)OCCCCOS(C)(=O)=O [Busulphan],LD50 at 14 days,in vivo; po,40 mg/kg
CC[C@]1(O)C[C@@H]2CN(CCc3c([nH]c4ccccc34)[C@@](C(=O)OC)(c3cc4c(cc3OC)N(C)[C@H]3[C@@](O)(C(=O)OC)[C@H](OC(C)=O)[C@]5(CC)C=CCN6CC[C@]43[C@@H]65)C2)C1 [Vinblastine sulfate],LD50,in vivo,5.6 mg/kg
same,LD50,in vivo; po,427 mg/kg
C[C@]12CC[C@@H]3c4ccc(OC(=O)N(CCCl)CCCl)cc4CC[C@H]3[C@@H]1CC[C@@H]2OP(=O)(O)O [Estramustine sodium phosphate],LD50,in vivo; po,380 mg/kg
N[C@@H](Cc1ccc(N(CCCl)CCCl)cc1)C(=O)O [Melphalan],LD50,in vivo,21 mg/kg
CC(C)C(=O)Nc1ccc([N+](=O)[O-])c(C(F)(F)F)c1 [Flutamide],LD50,in vivo; po,772 mg/kg
CCC1=C[C@@H]2CN(C1)Cc1c([nH]c3ccccc13)[C@@](C(=O)OC)(c1cc3c(cc1OC)N(C)[C@H]1[C@@](O)(C(=O)OC)[C@H](OC(C)=O)[C@]4(CC)C=CCN5CC[C@]31[C@@H]54)C2 [Vinorelbine tartrate],LD50,in vivo,2.3 mg/kg
"Neocarzinostatin (protein, UniProt P0A3R9 35-147, looked up, enediyne chromophore) Neocarzinostatin: AAPTATVTPSSGLSDGTVVKVAGAGLQAGTAYDVGQCAWVDTGVLACNPADFSSVTADANGSASTSLTVRRSFEGFLFDGTRWGTVDCTTAACQVGLSDAAGNGPEGVAISFN",LD50,"C57BL/6 male mouse; intraperitoneal, one-time administration, 14 days observation",1050 mg/kg
